Assay results as given in US6803380B1, “5-aryl-1h-1,2,4-triazole compounds as inhibitors of cyclooxygenase-2 and pharmaceutical compositions containing them” (Laboratoire Theramex, priority 1999, dated 2004).

Tests used:
[1] = target: T1, Cox-2 (Homo sapiens, UniProt P35354); settings: literature; cited from earlier work
T1 sequence (P35354 18-604): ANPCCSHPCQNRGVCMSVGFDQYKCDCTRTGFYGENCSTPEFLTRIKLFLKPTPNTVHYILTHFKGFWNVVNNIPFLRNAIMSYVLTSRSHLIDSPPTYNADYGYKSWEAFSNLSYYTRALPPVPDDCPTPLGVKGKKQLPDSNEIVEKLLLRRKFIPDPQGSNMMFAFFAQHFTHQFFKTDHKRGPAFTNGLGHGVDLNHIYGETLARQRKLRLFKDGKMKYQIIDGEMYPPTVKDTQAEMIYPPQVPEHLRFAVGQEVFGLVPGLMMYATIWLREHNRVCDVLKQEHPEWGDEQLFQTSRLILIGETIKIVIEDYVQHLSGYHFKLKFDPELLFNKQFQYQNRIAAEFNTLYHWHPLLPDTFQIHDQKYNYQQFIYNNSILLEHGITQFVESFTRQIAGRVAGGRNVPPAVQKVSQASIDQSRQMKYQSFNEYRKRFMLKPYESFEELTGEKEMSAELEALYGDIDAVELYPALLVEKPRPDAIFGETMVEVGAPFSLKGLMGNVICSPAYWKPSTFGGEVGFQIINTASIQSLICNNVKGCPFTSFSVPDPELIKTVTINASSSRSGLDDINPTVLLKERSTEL

[2] = target: cyclooxygenase-1 (Homo sapiens, UniProt P23219); settings: literature; cited from earlier work
[3] = target: T2, cyclooxygenase-2 (Homo sapiens, UniProt P35354); settings: literature; cited from earlier work
T2 sequence (P35354 18-604): T1 sequence (P35354 18-604)

[4] = target: T3, COX-1 (Ovis aries, UniProt P05979); experiment: Inhibition of purified COX-1 activity in vitro (PGE2 by enzymo-immunoassay); assay type: biochemical, ram; settings: concentration 1 μM; for % COX-1 inhibition: negative sign = inhibition
T3 construct: Purified COX-1 from ram seminal vesicles; purchased Cayman Chemicals; host or cells: ram seminal vesicles (tissue-purified)
T3 sequence (P05979 25-600): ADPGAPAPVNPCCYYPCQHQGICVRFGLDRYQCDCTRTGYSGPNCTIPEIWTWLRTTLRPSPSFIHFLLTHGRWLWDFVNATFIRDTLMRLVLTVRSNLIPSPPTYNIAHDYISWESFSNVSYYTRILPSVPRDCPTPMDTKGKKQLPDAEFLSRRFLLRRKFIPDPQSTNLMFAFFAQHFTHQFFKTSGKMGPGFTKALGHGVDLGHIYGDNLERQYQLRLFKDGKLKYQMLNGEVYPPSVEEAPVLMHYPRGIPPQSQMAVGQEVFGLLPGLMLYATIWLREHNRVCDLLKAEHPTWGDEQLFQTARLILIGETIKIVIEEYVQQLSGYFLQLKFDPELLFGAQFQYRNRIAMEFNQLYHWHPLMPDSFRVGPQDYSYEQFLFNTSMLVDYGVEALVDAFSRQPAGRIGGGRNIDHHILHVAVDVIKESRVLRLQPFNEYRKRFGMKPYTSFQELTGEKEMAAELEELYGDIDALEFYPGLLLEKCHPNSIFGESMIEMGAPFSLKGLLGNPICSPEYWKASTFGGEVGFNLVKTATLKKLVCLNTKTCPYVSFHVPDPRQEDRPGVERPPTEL
Protocol: (§1) Example compounds according to the invention were tested for their ability to inhibit COX-1 and/or COX-2 activities in vitro. Purified COX-1 from ram seminal vesicles and purified COX-2 from ewe placenta (both from Cayman Chemicals) were incubated for 10 minutes at 25° C. in the presence of their substrate, arachidonic acid (5 μM), with or without test compounds or standard inhibitors. Prostaglandin E2, the reaction product, was measured by enzymo-immunoassay (R&D Systems). Each individual value results from duplicate determinations. Final inhibition data are means±standard errors of at least (3) independent experiments performed on as many different days.

[5] = target: T4, COX-2 (Ovis aries, UniProt P79208); experiment: Inhibition of purified COX-2 activity in vitro (PGE2 by enzymo-immunoassay); assay type: biochemical, ewe; settings: concentration 1 μM; for inhibition at 1 µM: read-out: % COX-2 inhibition
T4 construct: purified COX-2 from ewe placenta; purchased Cayman Chemicals; host or cells: ewe placenta (tissue-purified)
T4 sequence (P79208 17-603): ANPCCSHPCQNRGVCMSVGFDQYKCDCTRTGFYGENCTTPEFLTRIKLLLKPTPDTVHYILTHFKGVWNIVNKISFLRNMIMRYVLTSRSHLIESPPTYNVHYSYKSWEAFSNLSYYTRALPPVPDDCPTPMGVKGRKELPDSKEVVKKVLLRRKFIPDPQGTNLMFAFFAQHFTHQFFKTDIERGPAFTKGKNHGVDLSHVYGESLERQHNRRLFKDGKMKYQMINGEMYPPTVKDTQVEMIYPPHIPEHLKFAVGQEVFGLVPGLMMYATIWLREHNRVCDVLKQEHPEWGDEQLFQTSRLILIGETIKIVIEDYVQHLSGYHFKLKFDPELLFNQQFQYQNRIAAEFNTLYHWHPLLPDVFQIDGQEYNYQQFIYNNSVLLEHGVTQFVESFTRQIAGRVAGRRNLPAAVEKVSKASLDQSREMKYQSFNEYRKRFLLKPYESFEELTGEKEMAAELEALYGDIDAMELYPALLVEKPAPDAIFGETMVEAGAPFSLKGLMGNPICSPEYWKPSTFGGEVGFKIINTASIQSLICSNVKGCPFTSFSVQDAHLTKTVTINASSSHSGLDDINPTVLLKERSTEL
Protocol: as §1

cyclooxygenase-1, sequence (P23219 24-599, species assumed): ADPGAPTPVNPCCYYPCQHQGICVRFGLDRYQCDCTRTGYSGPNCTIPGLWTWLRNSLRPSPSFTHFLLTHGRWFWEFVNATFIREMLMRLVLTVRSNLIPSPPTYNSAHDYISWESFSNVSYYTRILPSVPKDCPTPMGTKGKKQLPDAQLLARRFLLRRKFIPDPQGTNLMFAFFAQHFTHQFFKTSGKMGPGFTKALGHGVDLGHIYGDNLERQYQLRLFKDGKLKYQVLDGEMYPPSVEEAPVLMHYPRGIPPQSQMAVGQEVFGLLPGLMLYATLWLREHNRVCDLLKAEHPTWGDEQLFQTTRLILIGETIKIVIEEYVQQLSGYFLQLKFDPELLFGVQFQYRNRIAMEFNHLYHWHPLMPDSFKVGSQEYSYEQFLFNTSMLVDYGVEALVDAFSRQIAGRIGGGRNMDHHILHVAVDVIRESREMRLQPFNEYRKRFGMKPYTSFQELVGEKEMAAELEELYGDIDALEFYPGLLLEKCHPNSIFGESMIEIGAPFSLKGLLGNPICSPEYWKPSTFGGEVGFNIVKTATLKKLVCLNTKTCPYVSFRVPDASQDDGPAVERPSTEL

| Compound | Cox-2 inhibitory activity (in words) [1] | inhibition of cyclooxygenase-1 (in words) [2] | inhibition of cyclooxygenase-2 (in words) [3] | inhibition of COX-1 (in words) [4] | % COX-1 inhibition [4] [%] | selective inhibition of COX-2 (in words) [5] | inhibition at 1 µM [5] [%] | melting point [°C] |
| --- | --- | --- | --- | --- | --- | --- | --- | --- |
| Fc1ccc(-c2nc(C(F)(F)F)nn2-c2ccc(Cl)cc2)cc1 [compound (a)] | moderate Cox-2 inhibitory activity |  |  |  |  |  |  |  |
| CS(=O)(=O)c1ccc(-c2nc(C#N)nn2-c2ccc(F)cc2)cc1 [compound (b)] |  | weak and non selective inhibitors | weak and non selective inhibitors |  |  |  |  |  |
| Cc1nc(-c2ccc(S(C)(=O)=O)cc2)n(-c2ccc(Cl)cc2)n1 [Example 3, 1-(4-chloro-phenyl)-3-methyl-5-(4-methylsulfonyl-phenyl)-1H-1,2,4-triazole] |  |  |  | did not show any significant inhibition of COX-1 | −2 ± 5.7 | able to inhibit COX-2 selectively | 19 ± 2.6 | 186 |
| CS(=O)(=O)Nc1ccc(-n2nc(C(F)(F)F)nc2-c2ccc(S(C)(=O)=O)cc2)cc1 [Example 25, 1-(4-methylsulfonylamino-phenyl)-5-(4-methylsulfonyl-phenyl)-3-trifluoromethyl-1H-1,2,4-triazole] |  |  |  | did not show any significant inhibition of COX-1 | −5 ± 9 | able to inhibit COX-2 selectively | 31 ± 10 | 188 |
